Counter-ions that a name gives are not always drawn. Like-named read-outs stand apart in the source and are kept apart here.
Molecular target: T1, His6-AspH315–758 (human aspartate/asparagine-β-hydroxylase, AspH) (Homo sapiens, UniProt Q12797)
T1 construct: N-Terminally His6-tagged human AspH315–758 (His6-AspH315–758) was produced in E. coli BL21 (DE3) cells; made in house; host or cells: E. coli BL21 (DE3), pET-28a(+) vector
T1 sequence (Q12797 315-758): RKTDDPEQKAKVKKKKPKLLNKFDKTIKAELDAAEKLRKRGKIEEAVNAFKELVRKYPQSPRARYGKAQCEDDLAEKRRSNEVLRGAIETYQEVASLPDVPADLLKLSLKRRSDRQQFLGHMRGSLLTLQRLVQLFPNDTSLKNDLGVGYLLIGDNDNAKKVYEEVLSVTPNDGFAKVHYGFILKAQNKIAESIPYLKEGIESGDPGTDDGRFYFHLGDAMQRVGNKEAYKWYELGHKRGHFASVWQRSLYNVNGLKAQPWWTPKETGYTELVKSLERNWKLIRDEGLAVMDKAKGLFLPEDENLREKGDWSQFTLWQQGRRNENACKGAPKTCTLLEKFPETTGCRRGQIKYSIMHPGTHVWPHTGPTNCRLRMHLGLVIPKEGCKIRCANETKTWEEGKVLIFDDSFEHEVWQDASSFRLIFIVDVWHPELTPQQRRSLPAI
Experiment: SPE-MS AspH inhibition assay (LOPAC screen at fixed 20 μM and IC50 dose-response), hydroxylation of cyclic peptide hFX-CP101–119
Assay type: biochemical

[1] = LOPAC compound at 20uM, plate 2, normalised to DMSO and 2,4-PDCA controls
[2] = LOPAC Plate 4, compound at 20 uM
[3] = LOPAC Plate 4, compound at 20 uM, substrate conversion
[4] = LOPAC Plate 4, compound at 20 uM, read-out: % inhibition
[5] = LOPAC compound at fixed 20 uM, plate 1, normalised to DMSO and 2,4-PDCA controls
[6] = LOPAC compound at fixed 20 uM, substrate conversion, plate 1
[7] = LOPAC compound at 20uM, plate 2, conversion of substrate peptide
[8] = LOPAC compound at 20uM, conversion of substrate peptide

Which “Plate 2 (% conversion)” value does the source give for `Br.CCCN(CCC)[C@@H]1CCc2cccc(O)c2C1` [R-(+)-8-Hydroxy-DPAT hydrobromide] here?
The value was 39.31%.

What about the “Plate 2 (% inhibition)” value [1] of the same compound?
Its value is -10.03%.

What does the source list for `C#CCN[C@H](C)Cc1ccccc1.Cl` [R-(-)-Desmethyldeprenyl hydrochloride]?
Plate 2 (% conversion): 39.05%; Plate 2 (% inhibition) (20 µM): -9.24%

How did the “% inhibition” value [2] turn out when `COC1(C2=NCCN2)COc2ccccc2O1.Cl` (stereo not shown) [RX 821002 hydrochloride] was run?
Its value is -13.78%.

And the “% conversion” value [3]?
The value was 41.17%.

Which results are given for `O=C(c1ccc(OCCN2CCCCC2)cc1)c1c(-c2ccc(O)cc2)sc2cc(O)ccc12` [Raloxifene hydrochloride]?
% conversion [3]: 40.15%; inhibition at 20 µM [4]: -10.8%

With `CNC(=C[N+](=O)[O-])NCCSCc1ccc(CN(C)C)o1` [Ranitidine hydrochloride] as the compound, how does the “% conversion” value [3] read?
Its value is 37.20%.

What about the inhibition at 20 µM [4] of the same compound?
The inhibition at 20 µM was -2.13%.

Which “% conversion” value [3] does the source give for `COc1ccccc1OCC(O)CN1CCN(CC(=O)Nc2c(C)cccc2C)CC1` (stereo not shown) [Ranolazine dihydrochloride] here?
Its value is 41.52%.

And the inhibition at 20 µM [4]?
The inhibition at 20 µM was -14.8%.

What does the source list for `Nc1c(S(=O)(=O)O)cc(Nc2ccc(Nc3nc(Cl)nc(Nc4cccc(S(=O)(=O)O)c4)n3)c(S(=O)(=O)O)c2)c2c1C(=O)c1ccccc1C2=O` [Reactive Blue 2, reference compound]?
% conversion: 3.94%; inhibition at 20 µM: 95.3%; inhibition at 20 µM (read-out: Inhibition at 20 µM [%]): 95.3%

What does the source list for `Cc1cccc(-c2[nH]ncc2-c2ccc3ncccc3n2)n1` [RepSox]?
Plate 2 (% conversion): 40.48%; Plate 2 (% inhibition) (20 µM): -13.51%

For `COC(=O)[C@H]1[C@H]2C[C@@H]3c4[nH]c5cc(OC)ccc5c4CCN3C[C@H]2C[C@@H](OC(=O)c2cc(OC)c(OC)c(OC)c2)[C@@H]1OC` [Reserpine], which “Plate 1 (% inhibition)” value [5] is on record?
Its value is -13.78%.

And the “Plate 1 (% conversion)” value [6]?
The value was 40.50%.

`Oc1ccc(/C=C/c2cc(O)cc(O)c2)cc1` [Resveratrol] was tested. Which “% conversion” value [3] did it give?
Its value is 34.33%.

Which results are given for `CC1=C(/C=C/C(C)=C/C=C/C(C)=C/C(=O)Nc2ccc(O)cc2)C(C)(C)CCC1` [Retinoic acid p-hydroxyanilide]?
Plate 2 (% conversion) [7]: 25.03%; Plate 2 (% inhibition) [1]: 32.63%

With `CC1=C(/C=C/C(C)=C/C=C/C(C)=C/C(=O)O)C(C)(C)CCC1` [Retinoic acid] as the compound, how does the “% conversion” value [3] read?
Its value is 30.58%.

And the inhibition at 20 µM [4]?
Its inhibition at 20 µM is 17.2%.

What does the source list for `NC(=O)c1ncn([C@@H]2O[C@H](CO)[C@@H](O)[C@H]2O)n1` [Ribavirin]?
% conversion [3]: 38.92%; inhibition at 20 µM [4]: -7.18%

Which “% conversion” value [3] does the source give for `C1COC(NC(C2CC2)C2CC2)=N1` [Rilmenidine hemifumarate] here?
Its value is 24.79%.

Which “% conversion” value [3] does the source give for `Nc1nc2ccc(OC(F)(F)F)cc2s1` [Riluzole] here?
The value was 38.21%.

And the inhibition at 20 µM [4]?
The inhibition at 20 µM was -5.09%.

Which “% conversion” value [3] does the source give for `Cc1nc2sccn2c(=O)c1CCN1CCC(=C(c2ccc(F)cc2)c2ccc(F)cc2)CC1` [Ritanserin] here?
Its value is 37.56%.

What does the source list for `CC(NCCc1ccc(O)cc1)C(O)c1ccc(O)cc1` (stereo not shown) [Ritodrine hydrochloride]?
% conversion [3]: 37.24%; inhibition at 20 µM [4]: -2.24%

For `CN(C)CCc1c[nH]c2ccc(Cn3cncn3)cc12.O=C(O)c1ccccc1` [Rizatriptan benzoate salt], which “Plate 3 (% conversion)” value [8] is on record?
Its value is 37.82%.

`CNc1cc(NS(=O)(=O)c2ccc(N)cc2)nc(NC)n1.Cl.Cl` [Ro 04-6790 dihydrochloride] was tested. Which “% inhibition” value [2] did it give?
Its value is 35.85%.

What about the “% conversion” value [3] of the same compound?
The value was 24.24%.

Which “% inhibition” value [2] does the source give for `O=C(c1cc(O)c(O)c([N+](=O)[O-])c1)c1ccccc1F` [Ro 41-0960, reference compound] here?
Its value is 97.80%.

What about the “% conversion” value [3] of the same compound?
Its value is 3.09%.

With `COc1ccc(C2CNC(=O)C2)cc1OC1CCCC1` (stereo not shown) [Rolipram] as the compound, how does the “% conversion” value [3] read?
The value was 37.72%.

What about the inhibition at 20 µM [4] of the same compound?
Its inhibition at 20 µM is -3.65%.

`CCCN(CCC)CCc1cccc2c1CC(=O)N2` [Ropinirole hydrochloride] was tested. Which “% conversion” value did it give?
Its value is 31.94%.

What does the source list for `CC[C@H](CO)Nc1nc(NCc2ccccc2)c2ncn(C(C)C)c2n1` [Roscovitine]?
Plate 1 (% conversion): 40.73%; Plate 1 (% inhibition): -14.45%

For `C=C(C)[C@H]1Cc2c(ccc3c2O[C@@H]2COc4cc(OC)c(OC)cc4[C@@H]2C3=O)O1` [Rotenone], which “% conversion” value is on record?
The value was 46.53%.

What does the source list for `CC(=O)c1c(O)c(C)c(O)c(Cc2c(O)c3c(c(C(=O)/C=C/c4ccccc4)c2O)OC(C)(C)C=C3)c1O` [Rottlerin]?
% conversion: 14.64%; inhibition at 20 µM: 64%

`O=c1c2ccccc2nc2n1CCc1c-2[nH]c2ccccc12` [Rutaecarpine] was tested. Which “% conversion” value [3] did it give?
The value was 29.23%.

`N.N.N.N.N.N.N.N.N.N.N.N.N.N.[Cl-].[Cl-].[Cl-].[Cl-].[Cl-].[Cl-].[O-2].[O-2].[Ru+3].[Ru+3].[Ru+4]` [Ruthenium red] was tested. Which “% inhibition” value [2] did it give?
Its value is -14.56%.

And the “% conversion” value [3]?
The value was 41.44%.

With `CC(C)Cc1ccc([C@H](C)C(=O)O)cc1` [S(+)-Ibuprofen] as the compound, how does the “Plate 3 (% conversion)” value [8] read?
The value was 38.99%.

How did the “Plate 1 (% inhibition)” value [5] turn out when `CC(C)NC[C@H](O)COc1ccc(CC(N)=O)cc1` [S(-)-Atenolol] was run?
The value was -5.71%.

And the “Plate 1 (% conversion)” value [6]?
Its value is 37.79%.

How did the “% conversion” value [3] turn out when `CC(C)(C)NC[C@H](O)COc1nsnc1N1CCOCC1.O=C(O)/C=C\C(=O)O` [S(-)-Timolol maleate] was run?
The value was 29.54%.

Which “Plate 1 (% inhibition)” value [5] does the source give for `Brc1ccc([C@H]2CN3CCSC3=N2)cc1.O=C(O)C(=O)O` [S(-)-p-Bromotetramisole oxalate] here?
Its value is 75.43%.

And the “Plate 1 (% conversion)” value [6]?
Its value is 10.54%.

For `O=[N+]([O-])c1ccc(CSc2ncnc3c2ncn3[C@@H]2O[C@H](CO)[C@@H](O)[C@H]2O)cc1` [S-(4-Nitrobenzyl)-6-thioinosine], which “Plate 3 (% conversion)” value [8] is on record?
Its value is 36.51%.

Which “Plate 2 (% conversion)” value does the source give for `CNCC[C@H](Oc1ccc(C(F)(F)F)cc1)c1ccccc1.Cl` [S-(+)-Fluoxetine hydrochloride] here?
Its value is 45.11%.

And the “Plate 2 (% inhibition)” value (20 µM)?
Its value is -27.34%.

Which “Plate 2 (% conversion)” value [7] does the source give for `C[C@@](Cc1ccc(O)c(O)c1)(NN)C(=O)O` [S-(-)-Carbidopa] here?
The value was 7.52%.

And the “Plate 2 (% inhibition)” value [1]?
The value was 84.92%.

How did the “Plate 1 (% inhibition)” value [5] turn out when `[N-]=[N+]=Nc1ccc(C(=O)CSC[C@H](NC(=O)CC[C@H](N)C(=O)O)C(=O)NCC(=O)O)cc1` [S-(p-Azidophenacyl)glutathione] was run?
Its value is -2.24%.

And the “Plate 1 (% conversion)” value [6]?
The value was 36.62%.

Which “Plate 3 (% conversion)” value [8] does the source give for `CSC(=N)N.CSC(=N)N.O=S(=O)(O)O` [S-Methylisothiourea hemisulfate] here?
The value was 35.95%.

Which “Plate 3 (% conversion)” value [8] does the source give for `N[C@@H](CCC(=O)N[C@@H](CSN=O)C(=O)NCC(=O)O)C(=O)O` [S-Nitrosoglutathione] here?
Its value is 32.88%.

Which “Plate 2 (% conversion)” value [7] does the source give for `Cc1nn(-c2ccccc2)c(C)c1/C=N/N1CCN(Cc2ccccc2)CC1` [SANT-1] here?
The value was 42.39%.

And the “Plate 2 (% inhibition)” value [1]?
The value was -19.21%.

For `Cl.Cn1ccc2cc(NC(=O)Nc3cccnc3)ccc21` [SB 200646 hydrochloride], which “Plate 1 (% inhibition)” value [5] is on record?
The value was -6.42%.

What about the “Plate 1 (% conversion)” value [6] of the same compound?
Its value is 38.03%.

For `Oc1ccc(-c2nc(-c3ccncc3)c(-c3ccc(F)cc3)[nH]2)cc1` [SB 202190], which “Plate 1 (% inhibition)” value [5] is on record?
Its value is -5.28%.

And the “Plate 1 (% conversion)” value [6]?
Its value is 37.64%.

With `Cc1cc(NC(=O)Nc2ccc3c(ccn3C)c2)sn1` [SB 204741] as the compound, how does the “Plate 1 (% conversion)” value read?
The value was 37.70%.

And the “Plate 1 (% inhibition)” value?
Its value is -5.45%.

With `CC#CCOC(=O)c1c(C)nc2sc3c(c2c1N)CCC(O)C3` (stereo not shown) [SB 205384] as the compound, how does the “% conversion” value read?
The value was 39.48%.

`Cn1ccc2cc3c(cc21)CCN3C(=O)Nc1cccnc1` [SB 206553 hydrochloride] was tested. Which “% conversion” value did it give?
Its value is 28.82%.

With `CC[C@H](NC(=O)c1c(C)c(-c2ccccc2)nc2ccccc12)c1ccccc1` [SB 222200] as the compound, how does the “Plate 1 (% inhibition)” value [5] read?
Its value is -26.34%.

And the “Plate 1 (% conversion)” value [6]?
Its value is 44.72%.

For `Cc1cc2c(cc1Cl)N(C(=O)Nc1ccc(Oc3cccnc3C)nc1)CC2.Cl.Cl.O` [SB 242084 dihydrochloride hydrate], which “Plate 3 (% conversion)” value [8] is on record?
Its value is 37.92%.

For `CC1CCN(CC[C@H]2CCCN2S(=O)(=O)c2cccc(O)c2)CC1.Cl` [SB 269970 hydrochloride], which “% inhibition” value [2] is on record?
The value was -11.63%.

What about the “% conversion” value [3] of the same compound?
Its value is 40.44%.

With `Cc1cc2c(cc1Cl)N(C(=O)Nc1cccc3ncccc13)CC2` [SB-215505] as the compound, how does the “Plate 3 (% conversion)” value [8] read?
Its value is 42.68%.

Which “% inhibition” value [2] does the source give for `COc1cccc(NC(=O)/C=C/c2ccc(Cl)cc2)c1` [SB-366791] here?
The value was 0.24%.

And the “% conversion” value [3]?
Its value is 36.39%.

With `CC(=O)NNC(=O)N1Cc2ccccc2Oc2ccc(Cl)cc21` [SC 19220] as the compound, how does the “% conversion” value [3] read?
The value was 29.06%.

Source: paper PMC7251097, “Aspartate/asparagine-β-hydroxylase: a high-throughput mass spectrometric assay for discovery of small molecule inhibitors” (Scientific Reports, 2020)
